# Assay results from ChEMBL document CHEMBL6134780, “Halogenated retinoid derivatives as dual RARα and RXRα modulators for treating acute promyelocytic leukemia cells” (Eur J Med Chem, 2024).
# The source made the active and inactive calls. No cut-off for these calls is given here.
# Experiments:
# NB-4 [1] = experiment: Induction of apoptosis in human NB4 cells assessed as viable cells at 1 uM incubated for 24 hrs by Annexin V-FITC/PI staining based flow cytometric analysis (reference value: 92.36 %); assay type: functional; conditions: read-out: Activity
# NB-4 [2] = experiment: Induction of apoptosis in human NB4 cells assessed as necrotic cells at 1 uM incubated for 24 hrs by Annexin V-FITC/PI staining based flow cytometric analysis (reference value: 0.07 %); assay type: functional
# K562 [3] = experiment: Induction of apoptosis in human K562 cells assessed as necrotic cells at 2 uM incubated for 24 hrs by Annexin V-FITC/PI staining based flow cytometric analysis (reference value: 2.19 %); assay type: functional
# K562 [4] = experiment: Induction of apoptosis in human K562 cells assessed as late apoptotic cells at 1 uM incubated for 24 hrs by Annexin V-FITC/PI staining based flow cytometric analysis (reference value: 5.98 %); assay type: functional
# ATRA-resistant NB4-LR2 [5] = experiment: Induction of apoptosis in human ATRA-resistant NB4-LR2 cells assessed as PARP cleavage at 0.5 uM incubated for 24 hrs by Western blot analysis; assay type: functional, cell-based
# [6] = molecular target: T1, Retinoic acid receptor RXR-beta (Homo sapiens) (UniProt P28702); experiment: Agonist activity at Gal4-fused full length RXRbeta LBD (unknown origin) transfected in HEK293T cells co-transfected with pG5luc reporter and Renilla-luc at 0.1 to 1 uM incubated for 12 hrs by luciferase reporter gene assay; assay type: cell-based; conditions: dose 0.1-1 µM
# T1 sequence (whole entry): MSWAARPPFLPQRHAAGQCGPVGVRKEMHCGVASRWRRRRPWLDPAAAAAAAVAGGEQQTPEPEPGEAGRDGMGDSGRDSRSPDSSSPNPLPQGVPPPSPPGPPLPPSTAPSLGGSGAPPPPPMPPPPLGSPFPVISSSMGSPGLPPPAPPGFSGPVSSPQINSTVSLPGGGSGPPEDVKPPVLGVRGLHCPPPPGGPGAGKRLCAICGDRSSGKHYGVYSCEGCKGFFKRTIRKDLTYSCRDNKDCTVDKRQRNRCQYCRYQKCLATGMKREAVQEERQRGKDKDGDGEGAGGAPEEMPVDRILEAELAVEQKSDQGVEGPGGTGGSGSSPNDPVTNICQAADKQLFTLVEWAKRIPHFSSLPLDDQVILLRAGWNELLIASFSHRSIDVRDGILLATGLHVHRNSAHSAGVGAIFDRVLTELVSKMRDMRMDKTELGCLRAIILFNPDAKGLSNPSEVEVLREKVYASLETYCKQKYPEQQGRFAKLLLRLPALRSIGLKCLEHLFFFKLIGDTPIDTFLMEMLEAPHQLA
# [7] = molecular target: Peroxisome proliferator-activated receptor gamma (Homo sapiens) (UniProt P37231); experiment: Agonist activity at Gal4-fused full length PPARgamma LBD (unknown origin) transfected in HEK293T cells co-transfected with pG5luc reporter and Renilla-luc at 0.1 to 1 uM incubated for 12 hrs by luciferase reporter gene assay; assay type: cell-based; conditions: dose 0.1-1 µM
# Peroxisome proliferator-activated receptor gamma (Homo sapiens), sequence (P37231 whole entry, the tested form may be a part): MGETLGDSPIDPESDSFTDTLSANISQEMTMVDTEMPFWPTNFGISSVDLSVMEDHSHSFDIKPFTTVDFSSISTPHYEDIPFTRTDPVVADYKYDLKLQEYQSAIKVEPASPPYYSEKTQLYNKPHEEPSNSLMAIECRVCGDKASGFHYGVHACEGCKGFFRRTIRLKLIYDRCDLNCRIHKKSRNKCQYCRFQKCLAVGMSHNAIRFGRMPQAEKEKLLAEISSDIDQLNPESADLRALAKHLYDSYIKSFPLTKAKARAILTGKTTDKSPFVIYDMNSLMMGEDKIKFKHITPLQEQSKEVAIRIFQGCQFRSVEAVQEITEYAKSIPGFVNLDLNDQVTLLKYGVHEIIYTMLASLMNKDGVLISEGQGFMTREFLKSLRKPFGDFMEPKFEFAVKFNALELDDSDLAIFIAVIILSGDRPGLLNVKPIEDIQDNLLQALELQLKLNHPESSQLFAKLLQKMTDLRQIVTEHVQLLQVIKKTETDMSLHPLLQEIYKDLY
# [8] = molecular target: T2, Retinoic acid receptor RXR-gamma (Homo sapiens) (UniProt P48443); experiment: Agonist activity at Gal4-fused full length RXRgamma LBD (unknown origin) transfected in HEK293T cells co-transfected with pG5luc reporter and Renilla-luc at 0.1 to 1 uM incubated for 12 hrs by luciferase reporter gene assay; assay type: cell-based; conditions: dose 0.1-1 µM
# T2 sequence (whole entry): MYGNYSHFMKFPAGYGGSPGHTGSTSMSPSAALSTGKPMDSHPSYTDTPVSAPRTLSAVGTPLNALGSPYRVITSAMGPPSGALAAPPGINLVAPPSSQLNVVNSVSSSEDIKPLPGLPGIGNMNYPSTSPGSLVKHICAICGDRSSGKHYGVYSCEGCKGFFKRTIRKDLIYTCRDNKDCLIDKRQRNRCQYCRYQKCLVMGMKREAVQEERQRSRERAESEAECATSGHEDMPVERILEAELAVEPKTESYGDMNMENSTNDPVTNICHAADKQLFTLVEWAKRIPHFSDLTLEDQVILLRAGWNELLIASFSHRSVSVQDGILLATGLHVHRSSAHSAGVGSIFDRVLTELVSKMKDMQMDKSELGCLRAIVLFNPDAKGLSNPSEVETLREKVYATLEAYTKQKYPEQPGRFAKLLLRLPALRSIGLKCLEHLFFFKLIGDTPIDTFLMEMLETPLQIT
# [9] = molecular target: Oxysterols receptor LXR-alpha (Homo sapiens) (UniProt Q13133); experiment: Agonist activity at Gal4-fused full length LXRalpha LBD (unknown origin) transfected in HEK293T cells co-transfected with pG5luc reporter and Renilla-luc at 0.1 to 1 uM incubated for 12 hrs by luciferase reporter gene assay; assay type: cell-based; conditions: dose 0.1-1 µM
# Oxysterols receptor LXR-alpha (Homo sapiens), sequence (Q13133 whole entry, the tested form may be a part): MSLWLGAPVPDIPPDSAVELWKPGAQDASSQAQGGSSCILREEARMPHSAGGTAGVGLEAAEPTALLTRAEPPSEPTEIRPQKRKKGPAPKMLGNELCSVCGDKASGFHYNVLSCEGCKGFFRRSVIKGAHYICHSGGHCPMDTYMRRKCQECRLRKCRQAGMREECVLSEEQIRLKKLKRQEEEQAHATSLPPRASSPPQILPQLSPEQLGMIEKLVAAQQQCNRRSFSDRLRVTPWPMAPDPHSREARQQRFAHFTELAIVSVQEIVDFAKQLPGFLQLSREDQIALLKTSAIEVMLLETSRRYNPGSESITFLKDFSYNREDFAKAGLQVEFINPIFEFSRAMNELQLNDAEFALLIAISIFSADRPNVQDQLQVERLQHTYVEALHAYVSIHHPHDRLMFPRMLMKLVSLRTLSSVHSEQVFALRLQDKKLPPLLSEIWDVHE
# [10] = molecular target: T1, Retinoic acid receptor RXR-beta (Homo sapiens); experiment: Competitive binding affinity to Gal4-fused full length RXRbeta LBD (unknown origin) transfected in HEK293T cells co-transfected with pG5luc reporter and Renilla-luc at 0.1 to 1 uM incubated for 12 hrs in presence of ATRA by luciferase reporter gene assay; assay type: cell-based; conditions: dose 0.1-1 µM
# [11] = molecular target: T3, Retinoic acid receptor alpha (Homo sapiens, UniProt P10276); experiment: Agonist activity at Gal4-fused full length human RARalpha LBD transfected in HEK293T cells co-transfected with pG5luc reporter and Renilla-luc assessed as transactivation incubated for 12 hrs by dual luciferase reporter gene assay; assay type: cell-based
# T3 sequence (P10276 whole entry): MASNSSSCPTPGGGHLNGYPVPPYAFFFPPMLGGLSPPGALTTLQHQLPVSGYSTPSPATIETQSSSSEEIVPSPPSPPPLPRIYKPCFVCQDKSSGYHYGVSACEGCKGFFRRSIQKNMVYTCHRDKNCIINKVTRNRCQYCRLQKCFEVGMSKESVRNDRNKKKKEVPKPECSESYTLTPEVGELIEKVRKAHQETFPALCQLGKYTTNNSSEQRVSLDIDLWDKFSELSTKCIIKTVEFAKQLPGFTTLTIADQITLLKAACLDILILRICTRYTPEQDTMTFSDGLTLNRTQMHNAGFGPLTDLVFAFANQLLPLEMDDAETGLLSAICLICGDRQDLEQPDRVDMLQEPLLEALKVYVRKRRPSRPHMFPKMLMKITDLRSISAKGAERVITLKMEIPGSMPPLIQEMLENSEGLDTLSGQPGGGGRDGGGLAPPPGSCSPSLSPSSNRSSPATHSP
# HEK293T = experiment: Agonist activity at 3-Flag-tagged PML-RARalpha/HA-tagged RXRalpha (unknown origin) transfected in HEK293T cells co-transfected with pGL3-beta-RARE and Renilla-luc assessed as increase in transcriptional activity at 1 uM incubated for 12 hrs by luciferase reporter gene assay relative to ATRA; assay type: cell-based; conditions: Homo sapiens, filed as agonist
# NB-4 [12] = experiment: Cell cycle arrest in human NB4 cells assessed as increase in cyclin B1 expression at 2 uM incubated for 3 to 24 hrs by Western blot analysis; assay type: functional, cell-based; conditions: time 3-24 hrs
# ATRA-resistant NB4-LR2 [13] = experiment: Induction of mitosis in human ATRA-resistant NB4-LR2 cells assessed as upregulation of pT210-PLK1 expression at 2 uM measured after 3 hrs by Western blot analysis; assay type: functional, cell-based
# NB-4 [14] = experiment: Induction of DNA damage in human NB4 cells assessed as increase in gamma-H2AX expression at 2 uM by Western blot analysis; assay type: functional, cell-based
# ATRA-resistant NB4-LR2 [15] = experiment: Induction of DNA damage in human ATRA-resistant NB4-LR2 cells assessed as increase in gamma-H2AX expression at 2 uM by Western blot analysis; assay type: functional, cell-based
Structure (SMILES),viability at 1 µM (NB-4 [1]) [%],Activity (NB-4 [2]) [%],Activity (K562 [3]) [%],Activity (K562 [4]) [%],Activity (ATRA-resistant NB4-LR2 [5]),Activity [6],Activity [7],Activity [8],Activity [9],Activity [10],EC50 [11] [nM],Activity (HEK293T) [%],Activity (NB-4 [12]),Activity (ATRA-resistant NB4-LR2 [13]),Activity (NB-4 [14]),Activity (ATRA-resistant NB4-LR2 [15])
Cc1cc2c(cc1C(=O)/C(Br)=C/c1ccc(C(=O)O)cc1)C(C)(C)CCC2(C)C,59.8,1.3,2.27,7.4,Active,Weak_effect,Weak_effect,Minimal_effect,Minimal_effect,Not active; No Significant Competitive Effect On Atra Activation Observed,424,> 70,Active,Active,Active; Dna Damage Detected When Apoptosis Occurred,Active; Dna Damage Detected When Apoptosis Occurred
Cc1cc2c(cc1C(=O)/C(Br)=C\c1ccc(C(=O)O)cc1)C(C)(C)CCC2(C)C,76.7,0.52,3.03,6.86,Active,Weak_effect,Weak_effect,Minimal_effect,Minimal_effect,Not active; No Significant Competitive Effect On Atra Activation Observed,419,> 70,Active,Active,Active; Dna Damage Detected When Apoptosis Occurred,Active; Dna Damage Detected When Apoptosis Occurred
